The text below walks through data of patent publication US8207403B2, “EPSP synthase with high glyphosate resistance and its encoded sequence” (Biotechnology Research Institute The Chinese Academy of …, priority 2007, dated 2012).

What is called Km is the substrate concentration at which the rate is half of its maximum.

The test system of data set [1] is transgenic tobacco with GR-79 EPSP synthase gene. The experiment in a line: Glyphosate resistance gradient assay of transgenic tobacco. The format is in vivo. The conditions noted are these: greenhouse. From the text: The plant expression vector of EPSP synthase gene with high glyphosate resistance was constructed and transgenic tobaccos were constructed by transformation using leaf disc cocultivation.
(8) The plants were removed when the root systems were large, the solid medium attached was washed off with sterile water, and the plants were transferred into the soil, covered with a glass cover for several days at the beginning days, and the cover was removed after the plants were robust, and then the plants were transferred to the solid medium with 10 mM glyphosate to screen the plant strains with glyphosate resistance;

Data set [2] has as its system E. coli ER2799 (EPSP synthase defective) with EPSP synthase gene from Agrobacterium sp. cp4 (CP4-ER). In words: Glyphosate tolerance test, positive control strain CP4-ER. Particulars: M9 liquid medium, 37° C., 36 h, OD600. The format is cell-based. Here is the method:
CP4-ER strain was a strain with glyphosate resistance obtained by ligating the EPSP synthase gene from Agrobacterium sp. cp4 to the vector pACYC 184 and introducing into EPSP synthase defective E. coli ER2799 strain (NEB Company). It was used as a positive control in the figure.
(§1) The three strains were respectively inoculated into the limited medium M9 with the glyphosate concentration of 0, 20, 50, 80, 100, 120, 150, 200, 250, 300 mM, shaking cultured at 37° C. for 36 h, the absorbance values were determined at OD600 and the figure was plotted with the values.
(§2) E. coli ER2799 (containing new cloned pACYCGR-79 plasmid) was inoculated into M9 liquid medium (Cm^r) with 0-200 mm glyphosate, shaking cultured at 37° C. for 36 h, and the OD600 value of culture was determined. E. coli ER2799 with plasmid without insert was used as negative control.

Data set [3] concerns E. coli ER2799 (EPSP synthase defective) carrying pACYCGR-79 (GR-79-ER). In words: Glyphosate tolerance test, strain GR-79-ER. The format is cell-based. Particulars: M9 liquid medium, 37° C., 36 h, OD600. As for the experimental part: FIG. 1 is a graph of analysis of glyphosate resistance of clone GR-79, wherein: GR-79-ER strain was a strain with glyphosate resistance obtained by cutting the total DNA of soil with enzyme partly, ligating the vector pACYC 184 and introducing into EPSP synthase defective E. coli ER2799 strain (NEB Company).
as §1, §2

The target of data set [4] is GR-79 EPSP synthase (5-enolpyruvylshikinate-3-phosphate synthase), SEQ ID NO:1. In words: EPSP synthase enzyme activity and kinetic parameters (inorganic phosphorus release, PEP + S3P). The format is biochemical. Here is the method:
(§3) Standard curve of inorganic phosphorus: 10 mM inorganic phosphorus was diluted at 1:10, and 0, 1, 2, 3 . . . 20 μl was taken into 1.5 ml Eppendorf tube and milli-Q purified water was added up to 100 μl with mixing, 0.8 ml MAT solution was added with mixing, and then 100 μl 34% SC solution was quickly added with mixing after 3 min, kept at room temperature for 20 min and then the OD660 value was determined. Repeat the operations three times as above. The standard curve of inorganic phosphorus was achieved using the concentration of inorganic phosphorus as abscissa and the OD660 value as ordinate.
(§4) 1) Enzyme activity test: The crude protein extracted with enzyme was quantified using Coomassie Blue G-250 method (Bradford, 1976). The follow solutions were added into 1.5 ml Eppendorf tube on the ice: 2 μl of 10 mM PEP solution, 2 μl of 10 mM S3P solution, 2 μl of 0.5M HEPES solution, 2 μl of 1 mM (NH4)6MO7O24.4H2O solution and 12 μl of milli-Q purified water with mixing, bathed at 28° C. for 5 min and 1 μl crude enzyme solution was added into each, tube at intervals and timing, 200 μl MAT solution was added after 2 min at 2s intervals again, color development was performed for 3 min, and then 20 μl of 34% SC solution was added at 2s intervals and quickly mixed well, the color was developed for 20 min at room temperature and finally the OD660 value was determined. […]

The target in the next data set is GR-79 EPSP (uncultured soil bacterium (soil metagenome), UniProt A5Y5A5). The experiment in a line: Enzyme activity test of EPSP synthase (inorganic phosphorus release). The format is biochemical. Particulars: crude enzyme, PEP and S3P substrates, 28° C., OD660. Here is the method: as §3, §4
GR-79 EPSP, sequence (A5Y5A5 entry or part of it): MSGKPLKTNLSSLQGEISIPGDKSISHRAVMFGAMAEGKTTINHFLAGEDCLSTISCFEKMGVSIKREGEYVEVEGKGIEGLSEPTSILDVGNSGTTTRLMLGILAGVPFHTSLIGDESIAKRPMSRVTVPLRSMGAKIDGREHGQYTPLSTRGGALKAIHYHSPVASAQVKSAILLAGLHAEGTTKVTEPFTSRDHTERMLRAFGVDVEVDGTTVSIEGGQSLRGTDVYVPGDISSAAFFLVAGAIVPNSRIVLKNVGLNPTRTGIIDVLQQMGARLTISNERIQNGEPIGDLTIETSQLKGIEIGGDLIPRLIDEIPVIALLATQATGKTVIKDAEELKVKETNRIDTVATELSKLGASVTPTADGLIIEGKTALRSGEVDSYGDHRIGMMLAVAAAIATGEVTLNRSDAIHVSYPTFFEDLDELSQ

In the case of `O=C(O)CNCP(=O)(O)O` [glyphosate], the “growth of transgenic plants in medium with 20 mM glyphosate” value in data set [1] was “could grow well”. The “glyphosate resistance (highest glyphosate concentration allowing growth)” value in data set [2] came out at 200 mM; in data set [3], 250 mM. Moreover, the Ki/Km in data set [4] (Ki (glyphosate) / Km (PEP)) turned out to be 2.16.
`C=C(OP(=O)(O)O)C(=O)O` [PEP]: the Km in data set [4] (S3P maintained at 1 mM, PEP 0.05-1.0 mM, Eadie-Hofstee) was 79.2 ± 32 µM.

B1: GR-79 EPSP: new type I EPSP synthase with high glyphosate resistance, 445 amino acids, SEQ ID NO:1 (protein)
chain: MSHSTSRSPWSKATEYHEALVTPTSNKINGEIFVPGSKSYTNRALIIAALAEGTSTLKGILKSDDSYWCIDALRRLGIKIEVAEETVTIHGCGGKWPVQSAELFIGAAGTIARFLPGALAVAQQGEWIVDGVPQLRERPLKPLVDALTQLGGRIEYLTEHPGLPLRVKGAGLSGQHVRVPGNVSSQFLSGLLIASPYASEAVSIEVINGLVQPSYIAITIQLMREFGAKVEHNEDYSLFKVYPTGYQGRDTILEADASTACYFLSLAALTGGTIQVKNVGYHSYQPDARFIDVLEQMGCEVIKNESFLEVTGPTRLKGGFEVDMKPMSDQALTIGALAPFADAPIRVTNVAHIRAHESDRIAVICSSLQQMGVQVEEREDGFTIYPGQPVGTTLNPHDDHRNAMVFGLLGVKVPHIRIVDPGCVSKTCPAYFEELQKFGIHVEYN
modifications: From a mixture of organisms
Take B1: in the data set with GR-79 EPSP, the enzyme activity is recorded as 10.477 U/mg.
